Entries after “also recorded” stand apart in the source; their conditions may differ. Peptide text beside a SMILES is read from it.
Key:
Assay type in all cases: cell-based, human
[1] = test system: CD4+ T cells; assay: Intracellular cytokine staining (ICS), IFN-γ, CD4+ population; details: for ICS CD4+ T cell recall responses (in words): ICS assays, volunteers of Table 6; for CD4+ % (per cent of CD4+ T cells expressing IFN-γ): ICS, positive >0.03%
Procedure: (§1) Intracellular cytokine staining (ICS) was performed as published previously (Stewart, et al, Infect. Immun., 75: 2283-90 (2007)). Cryopreserved PBMC were thawed, washed, and resuspended at 10×10^6 cells per mL in complete medium. Peptides were used at 10 μg/mL and costimulatory antibodies anti-CD28 and […] (BD Bioscience, San Jose, Calif.) were used at 1 μg/mL. Stimulants were added to cells and incubated at 37° C. with 5% CO2 for 2 hours. Cells were stained with anti-CD3, anti-CD4, anti-CD8, anti-IFN-γ, anti-TNFα, and anti-IL2 and the entire available sample was acquired on a BD LSRII using FACSDiVa (BD Bioscience) software. Data were analyzed using FlowJo Software (Treestar, Inc.). The gating strategy involved progressively measuring total cells; viable cells; lymphocytes; T cells; CD4+ or CD8+ populations; and finally a specific cell type expressing a specific cytokine. Results were transferred to Prism (GraphPad) for graphing and statistical analysis. Data for peptides were corrected for media responses. A positive response was greater than the medium controls+3 standard deviations (0.03%).

[2] = test system: PBMC from volunteers immunized with Ad-CA or Ad-C; assay: IFN-γ ELISpot assay with cryopreserved PBMC of immunized volunteers; details: for ELISpot response to synthesized epitope (in words): volunteers, positive = p<0.05, at least doubling and at least ten sfc over negative control; for Epitope sfc/m: Table 4; for 15 mer sfc/m: Table 2, individual 15mer at 10 μg/mL; for ELISpot response to individual 15mer peptide (in words): volunteers immunized with Ad-CA or Ad-C
Procedure: Previous studies have confirmed that recall-T cell responses, as assayed by ELISpot, are detected using cryopreserved PBMCs although such responses are generally of a lower magnitude than fresh cells (Sedegah, et al., Malar J., 9: 241 (2011)).
The positive control was commercially obtained Class I Peptide Pool Plus (Anaspec, USA). Negative control was media with all supplements but no antigen-specific stimulant.
Throughout the studies, IFN-γ ELISpot assays were conducted as previously described (Sedegah, et al., Malar J., 9: 241 (2011); Wang, et al., PNAS (USA), 98: 10817-22 (2001)). Cryopreserved PBMC were suspended in 100 μL complete medium and stimulated with CSP peptides in 100 μL of complete medium at a final concentration of 10 μg/mL of each peptide tested (Wang, et al., PNAS (USA), 98: 10817-22 (2001)).
Cultures were incubated for 36 hours at 37° C., 5% CO2. Depending on availability of cells, each PBMC sample was assayed in duplicate, triplicate, or quadruplicate and the number of IFN-γ-secreting spot forming cells (sfc) was counted using an automated ELISpot reader (AID, GmbH, Germany). In duplicate assays, all values were used in analysis. […] The mean number of sfcs obtained in negative control wells was subtracted from the value of each test well from the same sample. Negative counts generated by this background subtraction were converted to zero. The mean number of spots of the test sample was then calculated and expressed as spot forming cells/million (sfc/m). A positive response was defined as a significant difference (p=<0.05) between average of the number of spot forming cells (sfc) in test wells and the average of negative control wells (Student's two tailed t-test), and at least a doubling of sfc in test wells relative to negative control wells, and a difference of at least ten sfc between test and negative control wells (Sedegah, et al., PLoS One, 6: e24586 (2011)).

[3] = test system: PBMC depleted of T-cell subsets; assay: ELISpot IFN-γ after T-cell subset depletion (CD4+ or CD8+ Dynabeads, mock control); details: for confirmation as recalling CD8+ T cell responses: ELISpot depletion and ICS studies; for CD4+ depl. sfc/m: after CD4+ T cell depletion; for CD4+ depl. (%) percent change in ELISpot activity: after CD4+ T cell depletion vs control depletion; for CD8+ depl. sfc/m: after CD8+ T cell depletion; for CD8+ depl. (%) percent change in ELISpot activity: after CD8+ T cell depletion vs control depletion; for Control dept. sfc/m: mock (control) depletion
Source text: For characterization of ELISpot IFN-γ-producing cells by T-cell subset depletions PBMC were depleted of T-cell subsets using anti-human CD4+ or anti-CD8+ coated Dynabeads M-450 (Dynal, Great Neck, N.Y.) following the manufacturer's instructions. Mock depletion was done with Dynabeads coated with sheep anti-mouse IgG. Flow cytometry confirmed that T-cell subset depletions were >99% in all experiments. Data are presented as the spot-forming cells/million (sfc/m) and percent decrease or increase in activity after depletion.
To further evaluate the predicted epitopes, ELISpot depletion assays were performed using PBMC from four volunteers stimulated with six predicted and tested epitopes. CD8+ T cell depletion reduced responses to Cp1 and Cp9 by 82%100%.

[4] = test system: CD8+ T cells; assay: Intracellular cytokine staining (ICS), IFN-γ, CD8+ population; details: for ICS CD8+ T cell recall responses (in words): ICS assays, volunteers of Table 6; for CD8+ % (per cent of CD8+ T cells expressing IFN-γ): ICS, positive >0.03%
Procedure: as §1

[5] = volunteer 69 (Ad-C), synthesized 8-10mer epitope
[6] = volunteer 127 (Ad-CA), synthesized 8-10mer epitope
[7] = volunteer 156 (Ad-CA), synthesized 8-10mer epitope
[8] = volunteer 58 (Ad-C), synthesized 8-10mer epitope

CC(C)C[C@H](NC(=O)[C@H](C)NC(=O)[C@H](CCC(=O)O)NC(=O)[C@@H](NC(=O)[C@H](Cc1ccccc1)NC(=O)[C@H](CC(C)C)NC(=O)[C@@H](N)Cc1ccccc1)C(C)C)C(=O)N[C@@H](Cc1ccccc1)C(=O)N[C@@H](CCC(N)=O)C(=O)O [Epitope E1a] (H-FLFVEALFQ-OH; N-terminus and C-terminus assumed)
ICS CD4+ T cell recall responses (in words) [1]: negative | CD4+ % (per cent of CD4+ T cells expressing IFN-γ) ([1]; V156): 0.03% | ELISpot response to synthesized epitope (in words) [2]: demonstrated activity | confirmation as recalling CD8+ T cell responses [3]: confirmed as recalling CD8+ T cell responses | CD4+ depl. sfc/m ([3]; V156): 215 sfc/m | CD4+ depl. (%) percent change in ELISpot activity ([3]; V156): −12% | CD8+ depl. sfc/m ([3]; V156): 91 sfc/m | CD8+ depl. (%) percent change in ELISpot activity ([3]; V156): −73% | Control dept. sfc/m ([3]; V156): 245 sfc/m | ICS CD8+ T cell recall responses (in words) [4]: positive | CD8+ % (per cent of CD8+ T cells expressing IFN-γ) ([4]; V156): 0.34%

CC(C)C[C@H](NC(=O)[C@H](C)NC(=O)[C@H](CCC(=O)O)NC(=O)[C@@H](NC(=O)[C@@H](N)Cc1ccccc1)C(C)C)C(=O)N[C@@H](Cc1ccccc1)C(=O)N[C@@H](CCC(N)=O)C(=O)N[C@@H](CCC(=O)O)C(=O)N[C@@H](Cc1ccc(O)cc1)C(=O)O [Epitope E2]
ICS CD4+ T cell recall responses (in words) [1]: negative | CD4+ % (per cent of CD4+ T cells expressing IFN-γ) ([1]; V69): 0.00% | Epitope sfc/m [2, 5]: 268 sfc/m | Epitope sfc/m [2, 6]: 89 sfc/m | ELISpot response to synthesized epitope (in words) [2]: active; also recorded: demonstrated activity | confirmation as recalling CD8+ T cell responses [3]: confirmed as recalling CD8+ T cell responses | CD4+ depl. sfc/m ([3]; V69): 254 sfc/m | CD4+ depl. (%) percent change in ELISpot activity ([3]; V69): −15% | CD8+ depl. sfc/m ([3]; V69): 8 sfc/m | CD8+ depl. (%) percent change in ELISpot activity ([3]; V69): −97% | Control dept. sfc/m ([3]; V69): 296 sfc/m | ICS CD8+ T cell recall responses (in words) [4]: positive | CD8+ % (per cent of CD8+ T cells expressing IFN-γ) ([4]; V69): 0.48%

CC(C)C[C@H](NC(=O)[C@H](C)NC(=O)[C@H](CCC(=O)O)NC(=O)[C@@H](NC(=O)[C@H](Cc1ccccc1)NC(=O)[C@@H](N)CC(C)C)C(C)C)C(=O)N[C@@H](Cc1ccccc1)C(=O)N[C@@H](CCC(N)=O)C(=O)N[C@@H](CCC(=O)O)C(=O)N[C@@H](Cc1ccc(O)cc1)C(=O)O [Epitope E3] (H-LFVEALFQEY-OH; N-terminus and C-terminus assumed)
Epitope sfc/m [2, 5]: 259 sfc/m | Epitope sfc/m [2, 6]: 99 sfc/m | ELISpot response to synthesized epitope (in words) [2]: active; also recorded: positive; also recorded: demonstrated activity

CC[C@H](C)[C@H](NC(=O)[C@@H](N)CC(C)C)C(=O)N[C@@H](CCSC)C(=O)N[C@H](C(=O)N[C@@H](CC(C)C)C(=O)N[C@@H](CO)C(=O)N[C@@H](Cc1ccccc1)C(=O)N[C@@H](CC(C)C)C(=O)N[C@@H](Cc1ccccc1)C(=O)N[C@@H](CC(C)C)C(=O)O)C(C)C [Epitope E17]
Epitope sfc/m [2, 7]: 156 sfc/m | ELISpot response to synthesized epitope (in words) [2]: positive

CC[C@H](C)[C@H](NC(=O)[C@H](C)N)C(=O)N[C@@H](CC(C)C)C(=O)N[C@@H](CO)C(=O)N[C@H](C(=O)N[C@@H](CO)C(=O)N[C@@H](CO)C(=O)N[C@@H](Cc1ccccc1)C(=O)N[C@@H](CC(C)C)C(=O)O)C(C)C [Epitope E18a]
ELISpot response to synthesized epitope (in words) [2]: demonstrated activity

AILSVSSFLF [Epitope E18]
Epitope sfc/m ([2]; volunteer 63 (Ad-C), synthesized 8-10mer epitope): 41 sfc/m | ELISpot response to synthesized epitope (in words) [2]: positive

DKHIKEYLNKIQNSL [Cp6-C47]
15 mer sfc/m ([2]; volunteer 61 (Ad-C)): 48 sfc/m

EALFQEYQCYGSSSN [Cp1-05, 15mer CSP peptide aa 17-31]
15 mer sfc/m ([2]; volunteer 58 (Ad-C)): 105 sfc/m

EKKICKMEKCSSVFN [Cp9-C60, 15mer CSP peptide aa 365-379]
15 mer sfc/m ([2]; volunteer 61 (Ad-C)): 39 sfc/m

ELNYDNAGTNLYNEL [Cp2-C10, 15mer CSP peptide aa 37-51]
15 mer sfc/m ([2]; volunteer 41 (Ad-C)): 35 sfc/m

FLFVEALFQE [Epitope E1]
Epitope sfc/m [2, 8]: 49 sfc/m | Epitope sfc/m [2, 7]: 105 sfc/m | ELISpot response to synthesized epitope (in words) [2]: active; also recorded: positive; also recorded: demonstrated activity

FLFVEALFQEYQCYG [Cp1-C4, 15mer CSP peptide aa 13-27]
15 mer sfc/m ([2]; volunteer 01 (Ad-CA)): 48 sfc/m | 15 mer sfc/m ([2]; volunteer 05 (Ad-CA)): 44 sfc/m | 15 mer sfc/m ([2]; volunteer 12 (Ad-CA)): 87 sfc/m | 15 mer sfc/m ([2]; volunteer 69 (Ad-C)): 368 sfc/m | ELISpot response to individual 15mer peptide (in words) [2]: positive

IMVLSFLFL (listed as Plasmodium falciparum) [Epitope E21, CSP aa 388-396]
Epitope sfc/m ([2]; volunteer 125 (Ad-CA), synthesized 8-10mer epitope): 29 sfc/m | ELISpot response to synthesized epitope (in words) [2]: low to modest response; also recorded: demonstrated activity

KCSSVFNVVNSSIGL [Cp9-C62, 15mer CSP peptide aa 373-387]
15 mer sfc/m ([2]; volunteer 01 (Ad-CA)): 116 sfc/m

KEYLNKIQNSLSTEW [Cp6-C48]
15 mer sfc/m ([2]; volunteer 05 (Ad-CA)): 106 sfc/m | 15 mer sfc/m ([2]; volunteer 41 (Ad-C)): 103 sfc/m | 15 mer sfc/m ([2]; volunteer 58 (Ad-C)): 45 sfc/m | ELISpot response to individual 15mer peptide (in words) [2]: positive

NELEMNYYGKQENWY [Cp2-C13, 15mer CSP peptide aa 49-63]
15 mer sfc/m ([2]; volunteer 01 (Ad-CA)): 116 sfc/m | 15 mer sfc/m ([2]; volunteer 12 (Ad-CA)): 334 sfc/m

QEYQCYGSSSNTRVL [Cp1-C6, 15mer CSP peptide aa 21-35]
15 mer sfc/m ([2]; volunteer 58 (Ad-C)): 83 sfc/m

SSIGLIMVLSFLFLN [Cp9-C65, 15mer CSP peptide aa 383-397]
15 mer sfc/m ([2]; volunteer 01 (Ad-CA)): 46 sfc/m | 15 mer sfc/m ([2]; volunteer 02 (Ad-CA)): 44 sfc/m | 15 mer sfc/m ([2]; volunteer 08 (Ad-CA)): 62 sfc/m

SVFNVVNSSI [Epitope E13]
Epitope sfc/m ([2]; volunteer 37 (Ad-C), synthesized epitope, single value or first of two assays): 28 sfc/m | Epitope sfc/m [2, 8]: 80 sfc/m | ELISpot response to synthesized epitope (in words) [2]: positive; also recorded: demonstrated activity

SVSSFLFVEALFQEY [Cp1-C3, 15mer CSP peptide aa 9-23]
15 mer sfc/m ([2]; volunteer 05 (Ad-CA)): 65 sfc/m | 15 mer sfc/m ([2]; volunteer 58 (Ad-C)): 29 sfc/m | 15 mer sfc/m ([2]; volunteer 69 (Ad-C)): 385 sfc/m | ELISpot response to individual 15mer peptide (in words) [2]: positive

TNLYNELEMNYYGKQ [Cp2-C12, 15mer CSP peptide aa 45-59]
15 mer sfc/m ([2]; volunteer 01 (Ad-CA)): 119 sfc/m | 15 mer sfc/m ([2]; volunteer 12 (Ad-CA)): 411 sfc/m

VFNVVNSSIGLIMVL [Cp9-C63, 15mer CSP peptide aa 377-391]
15 mer sfc/m ([2]; volunteer 08 (Ad-CA)): 109 sfc/m | 15 mer sfc/m ([2]; volunteer 61 (Ad-C)): 80 sfc/m | ELISpot response to individual 15mer peptide (in words) [2]: positive

VNSSIGLIMVLSFLF [Cp9-C64, 15mer CSP peptide aa 381-395]
15 mer sfc/m ([2]; volunteer 08 (Ad-CA)): 91 sfc/m

Source: US9645147B2, “Recombinant polypeptide construct comprising Plasmodium falciparum circumsporozoite protein HLA class I restricted T-cell epitopes” (priority 2013, dated 2017)
